The values that follow come from ChEMBL document CHEMBL1201862, “PubChem BioAssay data set” (2004).

Assay [1] addresses Disintegrin and metalloproteinase domain-containing protein 17 (Homo sapiens, UniProt P78536). The assay can be described thus: exosite inhibitors of ADAM17, dose response, biochemical (AID 743260).
Assay [2] in a line: ADAM10 protease inhibitors, dose response, selectivity assay for ADAM17 exosite inhibitor project, biochemical, FRET peptide substrate, recombinant human ADAM10 (AID 743259).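 Further: ADAM10 enzyme cleaving a FRET peptide substrate.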
A further assay has as its target Paired box protein Pax-8 (Homo sapiens, UniProt Q06710). The assay can be described thus: inhibitors of PAX8-driven TPO luciferase reporter, dose response, RMG-I cells, cherry-pick (AID 687027).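 Further: luciferase reporter driven by Pax8 target thyroperoxidase promoter measured by SteadyGlo luminescence.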 In kind it is functional, cell-based. (In general: Reporter assays use an easily measured gene product as a stand-in for the process of interest.)
The nature of assay [3]: cytotoxicity in OVCAR8 ovarian cancer cells, dose response, PAX8 project, cell-based, plate reader, dry powder samples (AID 743197). The following applies: OVCAR-8. Format: functional.
Assay [4] deals with 5-hydroxytryptamine receptor 2A (Mus musculus, UniProt P35363). Format: functional, cell-based.
The next assay deals with Mu-type opioid receptor (Homo sapiens, UniProt P35372). In kind it is functional, cell-based.
The target of the next assay is Major prion protein (Homo sapiens, UniProt P04156). In kind it is functional, cell-based.
Assay [5] in a line: cytotoxicity toward NIH3T3 fibroblasts, dose response, counter-screen, cell-based, ATP luminescence, mouse fibroblasts (AID 2010).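 Further: cells exposed to compound for about 90 hours before reading.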 Format: functional.
A short description of assay [6]: inhibitors of intracellular T. cruzi replication, confirmation, NIH3T3 host cells, beta-gal luminescence (AID 2044).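 Further: intracellular parasites grown in NIH/3T3 mouse fibroblasts as host cells; luminescent beta-galactosidase reporter signal from transgenic T. cruzi replicating inside host cells; inhibitors lower the luminescence signal.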 In kind it is functional, cell-based.
In assay [7] the target is ATP-dependent molecular chaperone HSP82 (Candida albicans (strain WO-1) (Yeast), UniProt C4YTQ8). The assay can be described thus: loss of DOC-induced GRE-beta-galactosidase reporter signal, dose response, Hsp90 inhibitor project, S. cerevisiae, luminescence (AID 2400).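 Further: beta-galactosidase luminescence from glucocorticoid response element reporter as proxy for Hsp90 function; inhibitor potency where signal loss means Hsp90 inhibition.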 Format: functional, cell-based.
The nature of assay [8]: NIH-3T3 fibroblast cytotoxicity, dose response, cytotoxicity control, cell-based, fluorescence, Alamar Blue, secondary assay (AID 2327).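 Further: NIH-3T3 mouse fibroblasts cultured with fluconazole at 8 µg/mL.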 Format: functional. In general terms: Alamar Blue is a resazurin reagent that responds to reducing activity.
The target in the next assay is Large T antigen (Simian virus 40, UniProt P03070). Format: functional, Betapolyomavirus macacae.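 Further: Confirmatory-stage PubChem screen for compounds that inhibit SV40 T antigen.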
The nature of assay [9]: C. albicans growth with fluconazole, confirmation, fluorescence, retest (AID 2467). In kind it is functional, cell-based.
Assay [10] addresses T1, Serine/threonine-protein phosphatase (Candida dubliniensis (strain CD36 / CBS 7987 / NCPF 3949 / NRRLY-17841) (Yeast), UniProt B9W6M3).
T1 sequence (B9W6M3 whole entry): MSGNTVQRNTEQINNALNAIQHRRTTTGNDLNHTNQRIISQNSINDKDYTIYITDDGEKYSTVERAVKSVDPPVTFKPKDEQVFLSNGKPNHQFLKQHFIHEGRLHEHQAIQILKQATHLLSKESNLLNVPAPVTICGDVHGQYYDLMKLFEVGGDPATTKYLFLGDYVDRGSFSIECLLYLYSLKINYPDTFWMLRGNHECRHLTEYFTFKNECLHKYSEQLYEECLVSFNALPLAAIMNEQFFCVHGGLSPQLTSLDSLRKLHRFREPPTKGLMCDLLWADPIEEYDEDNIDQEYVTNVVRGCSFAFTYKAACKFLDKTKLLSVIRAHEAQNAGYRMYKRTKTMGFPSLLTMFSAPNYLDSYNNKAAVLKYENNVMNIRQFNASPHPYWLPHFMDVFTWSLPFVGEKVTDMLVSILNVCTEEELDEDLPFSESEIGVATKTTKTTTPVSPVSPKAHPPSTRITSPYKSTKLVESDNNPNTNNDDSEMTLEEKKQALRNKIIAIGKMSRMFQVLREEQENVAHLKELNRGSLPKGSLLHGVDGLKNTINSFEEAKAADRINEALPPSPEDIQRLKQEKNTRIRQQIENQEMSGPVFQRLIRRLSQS
The experiment in a line: calcineurin pathway inhibitors in yeast reporter, dose response, S. cerevisiae, CDRE-lacZ, luminescence, secondary (AID 2388).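 Further: yeast reporter cells carrying a calcineurin-responsive lacZ construct stimulated with calcium chloride; luminescent beta-galactosidase reporter signal in whole cells rather than isolated phosphatase activity; potency for inhibition where a drop in reporter signal means calcineurin blockade.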 Format: functional, cell-based.

Assay [11] is described as follows: intracellular Trypanosoma cruzi inhibitors in host cells – cell-based, plate reader, cherry-pick samples, set 3, dose response (AID 651818).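 Further: compounds incubated with infected cells for about four days.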 In kind it is functional.
Assay [12] deals with T2, Mannose-6-phosphate isomerase (Homo sapiens, UniProt P34949).
T2 sequence (P34949 whole entry): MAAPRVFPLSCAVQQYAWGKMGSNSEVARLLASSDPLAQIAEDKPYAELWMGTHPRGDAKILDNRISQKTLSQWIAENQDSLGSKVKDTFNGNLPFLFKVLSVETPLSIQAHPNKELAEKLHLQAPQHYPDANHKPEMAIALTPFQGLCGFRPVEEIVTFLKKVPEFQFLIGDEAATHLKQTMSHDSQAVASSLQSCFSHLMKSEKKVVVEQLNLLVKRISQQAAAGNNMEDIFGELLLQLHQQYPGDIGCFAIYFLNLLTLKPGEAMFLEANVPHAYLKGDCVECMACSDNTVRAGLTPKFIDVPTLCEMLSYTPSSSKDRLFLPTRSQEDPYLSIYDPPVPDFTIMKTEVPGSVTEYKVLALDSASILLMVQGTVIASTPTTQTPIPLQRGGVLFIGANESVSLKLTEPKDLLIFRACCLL
The experiment in a line: human PMI inhibitors, high substrate, primary screen, biochemical, fluorescence intensity, high mannose 6-phosphate (AID 1220).

The target in assay [13] is T2, Mannose-6-phosphate isomerase. The assay can be described thus: inhibitors of human PMI, primary screen, biochemical, fluorescence intensity, coupled assay (AID 1209).
Assay [14] in a line: HEK293T cytotoxicity, dose response, cytotoxicity control for miR-122 modulator project, cell-based, inhibitor set, cherry-pick, set 2 (AID 720697). In kind it is functional.
Assay [15] can be described thus: microbe, parasite or virus in culture. Format: functional. To be noted: Mycobacterium tuberculosis.
For assay [16], the target named is T3, Rac GTPase-activating protein 1 (Homo sapiens, UniProt Q9H0H5).
T3 sequence (Q9H0H5 whole entry): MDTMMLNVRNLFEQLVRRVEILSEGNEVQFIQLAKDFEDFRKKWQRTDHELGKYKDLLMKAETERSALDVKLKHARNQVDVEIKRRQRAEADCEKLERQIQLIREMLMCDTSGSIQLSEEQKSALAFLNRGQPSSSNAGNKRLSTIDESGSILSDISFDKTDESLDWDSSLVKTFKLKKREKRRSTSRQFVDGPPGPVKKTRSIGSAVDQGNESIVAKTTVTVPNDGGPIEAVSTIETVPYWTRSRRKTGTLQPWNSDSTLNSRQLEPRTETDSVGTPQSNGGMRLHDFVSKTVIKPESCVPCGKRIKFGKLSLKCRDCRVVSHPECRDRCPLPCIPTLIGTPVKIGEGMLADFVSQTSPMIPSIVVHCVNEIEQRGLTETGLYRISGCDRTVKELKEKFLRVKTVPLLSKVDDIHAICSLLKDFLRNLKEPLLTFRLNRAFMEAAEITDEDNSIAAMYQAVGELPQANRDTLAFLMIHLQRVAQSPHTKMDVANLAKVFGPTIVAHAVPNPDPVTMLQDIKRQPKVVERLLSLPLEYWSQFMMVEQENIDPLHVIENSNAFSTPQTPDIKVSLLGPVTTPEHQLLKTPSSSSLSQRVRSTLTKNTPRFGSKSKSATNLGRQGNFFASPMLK
The experiment in a line: MgcRacGAP GTPase-activating activity inhibitors, confirmation, biochemical, ADP Hunter fluorescence, primary and confirmatory (AID 624330). In kind it is functional.

Assay [17] in a line: HeLa cell cytotoxicity, dose response, cytotoxicity control for MgcRacGAP inhibitor project (AID 624300). In kind it is functional.
Assay [18] addresses Heat shock protein HSP 90-alpha (Homo sapiens, UniProt P07900). The experiment in a line: Luminescence-based dose response biochemical high throughput screening assay for inhibitors of the Heat Shock Protein 90 (HSP90). [Related pubchem assays: 1831 (Summary AID.), 1846 (Confirmation screen.), 1789 (Primary screen.)].
Assay [19] deals with Mitogen-activated protein kinase 10 (Homo sapiens, UniProt P53779). The experiment in a line: Dose response biochemical screening assay for inhibitors of c-Jun N-Terminal Kinase 3 (JNK3). [Related pubchem assays: 746 ].
Assay [20] in a line: inhibitors of clade B AD8 Env fusion, dose response, cell-based, cherry-pick (AID 652062).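 Further: luciferase signal from cell-cell fusion driven by HIV-1 clade B AD8 Env; potency is for inhibitors of fusion seen as a drop in luminescence.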 In kind it is functional.
A short description of assay [21]: inhibitors of HIV Env-driven cell fusion, dose response, cherry-pick (AID 652057). In kind it is functional, cell-based.

The source made the active and inactive calls.

In the case of `CCOc1cccc(OCCOc2ccc(C(=O)c3ccccc3)cc2)c1`, the IC50 in assay [1] and in assay [2] was > 69.5 µM (inactive) throughout.

As to `C[C@@H]1CCCCO[C@@H](CN(C)Cc2ccc(Cl)c(Cl)c2)[C@H](C)CN([C@@H](C)CO)C(=O)c2cc(NS(=O)(=O)c3ccc(Cl)cc3)ccc2O1`, the AC50 at Paired box protein Pax-8 was 7 µM (active); in [3], 44 µM (active).

Take `c1ccc(N2CCN(Cc3ccc4c(c3)OCO4)CC2)nc1`: the EC50 is 0.0228 µM (active) in [4] and 92.5 µM (inactive) at Mu-type opioid receptor.

On to `COC(=O)CSc1nc(-c2ccccc2)nc2ccc(F)cc12`, for which the IC50 was > 138 µM (inactive) in the assay “cells” and 2.56 µM (active) on Major prion protein.

Turning to `COc1cccc(N2CCN(Cc3nc(N)nc(N4CCCc5ccccc54)n3)CC2)c1`, the EC50 was 76.1 µM (inactive) in assay [4] and 92.4 µM (inactive) at Mu-type opioid receptor.

With `Cc1ccc(S(=O)(=O)N(CCCO)CC(O)CON=C2c3ccccc3-c3ccccc32)cc1` (stereo not given), the figures for the IC50 in assay [1] and in [2] were > 69.5 µM (inactive) and > 7.72 µM (active), respectively. The EC50 in assay [5] is > 60 µM (not active); in assay [6], 1.6 µM (active).

For the compound `CCc1cc(S)n2c(nc3ccccc32)c1C#N`, the EC50 in assay [7] was > 150 µM (inactive); in assay [8] it was > 150 µM (inactive); in [9], 0.254 µM (active); in assay [10], > 180 µM (inactive). The IC50 on Large T antigen was 99.8 µM (active).

For `COc1ccc(CN(C)C[C@H]2Oc3ccc(NC(=O)Nc4ccc(C(F)(F)F)cc4)cc3CC(=O)N([C@H](C)CO)C[C@H]2C)cc1`, the AC50 in assay [11] is 3.5 µM (active).

As for `CC(C)(C)N1C(=O)Cc2c1nc(N)c1c(N)nc(N3CCCCC3CO)c(C#N)c21` (stereo not given), the IC50 in [12] and in [13] was > 50 µM (not active) each time.

Consider `C[C@H](NC(=O)C[C@@H]1CC[C@H]2[C@H](COc3ccc(NS(=O)(=O)c4ccc(Cl)cc4)cc3C(=O)N2C)O1)c1ccccc1`, for which the AC50 in assay [14] is 9.74 µM (active).

For the compound `C[C@@H]1CCCCO[C@H](CN(C)S(=O)(=O)c2cccs2)[C@@H](C)CN([C@H](C)CO)C(=O)c2cc(NC(=O)Nc3ccc(C(F)(F)F)cc3)ccc2O1`, in assay [11], the AC50 is 4.91 µM (active).

With `Cc1ccnc(Sc2ccc([N+](=O)[O-])cc2[N+](=O)[O-])n1`, the EC50 in assay [7] is 23.6 µM (active); in [8], 14.2 µM (active); in assay [9], 0.91 µM (active); in assay [10], > 180 µM (inactive). Also, in assay [15], the CC50 was 7.25 µM (active).

Regarding `CCN(c1ccccc1)S(=O)(=O)c1ccc(N2CCN(c3ccc(O)cc3)CC2)nc1`, in assay [16], the IC50 is 40.5 µM (active). Moreover, the CC50 in assay [17] is 100 µM (active).

As for `COc1ccc(NC(=O)C2(C)Cc3c(-c4cccc(C(F)(F)F)c4)ccnc3O2)cn1` (stereo not given), the IC50 in assay [1] is > 69.5 µM (inactive); in assay [2], 32.4 µM (inactive).

Consider `CCOc1ccc(-c2nc(CN(Cc3ccccc3)C[C@@H]3CCC(=O)N3)c(C)o2)cc1`, for which the IC50 in assay [18] is 3.05 µM (active).

As for `CCCn1c(N)c(C(=O)CSc2nncs2)c(=O)[nH]c1=O`, the IC50 in “cells” is > 138 µM (inactive); at Major prion protein, 5.88 µM (active).

With `c1ccc2c(c1)nc(N1CCOCC1)c1c3ccccc3[nH]c21`, the IC50 in [19] was 30.4 µM (not active).

For the compound `Cc1ccccc1S(=O)(=O)N1C[C@H](O)COC[C@H]2O[C@@H](CC(=O)NCc3ccccc3Cl)CC[C@@H]21`, the figures for the AC50 in [20] and in assay [21] were 6.43 µM (active) and 1.12 µM (active), respectively.

As to `C[C@@H]1CCCCO[C@@H](CN(C)Cc2ccncc2)[C@H](C)CN([C@H](C)CO)C(=O)c2cc(NC(=O)Nc3ccc(C(F)(F)F)cc3)ccc2O1`, the AC50 is 6.48 µM (active) on Paired box protein Pax-8 and 53.8 µM (active) in assay [3].

`Cn1nccc1C(=O)Nc1ccc(OC(=O)c2ccnn2C)cc1`: the IC50 in assay [16] was 16.7 µM (active). In [17], the CC50 was 100 µM (active).

Regarding `CCCN1CCC[C@H](c2cccc(O)c2)C1`, the values for the EC50 (in assay [4]; at Mu-type opioid receptor) were 0.711 µM (active) and 92.4 µM (inactive), respectively.

As for `Cc1ccc(S(=O)(=O)Nc2cccc3c2O[C@@H](CN(C)Cc2ccc(Oc4ccccc4)cc2)[C@@H](C)CN([C@H](C)CO)C3=O)cc1`, the AC50 at Paired box protein Pax-8 was 12.2 µM (active); in [11], 2.89 µM (active).

With `COc1cc(CC(=O)Nc2ncc(C)s2)cc(OC)c1OC`, in assay [19], the IC50 is 13.3 µM (not active).

With `CCOC(=O)NC(=O)CSc1cc(C)c2cc(C)cc(C)c2n1`, the IC50 in the assay “cells” is > 138 µM (inactive); on Major prion protein, 9.4 µM (active).

The term IC50 denotes the midpoint of a concentration-inhibition curve. By AC50 is commonly meant the concentration at which the activity in the assay is half-maximal. As usually defined, the EC50 is the midpoint of the concentration-response curve.
